From US7973051B2 (Hoffman-La Roche Inc., priority 2007, dated 2011)

molecular target: T1, human liver FBPase (Homo sapiens, UniProt P09467); experiment: FBPase assay: inorganic phosphate release (malachite green); assay type: biochemical; details: recombinant human liver FBPase, 50 μM fructose-1,6-bisphosphate, read-out at 620 nm
T1 construct: made in house; host or cells: E. coli
T1 sequence (P09467 2-338 limits assumed): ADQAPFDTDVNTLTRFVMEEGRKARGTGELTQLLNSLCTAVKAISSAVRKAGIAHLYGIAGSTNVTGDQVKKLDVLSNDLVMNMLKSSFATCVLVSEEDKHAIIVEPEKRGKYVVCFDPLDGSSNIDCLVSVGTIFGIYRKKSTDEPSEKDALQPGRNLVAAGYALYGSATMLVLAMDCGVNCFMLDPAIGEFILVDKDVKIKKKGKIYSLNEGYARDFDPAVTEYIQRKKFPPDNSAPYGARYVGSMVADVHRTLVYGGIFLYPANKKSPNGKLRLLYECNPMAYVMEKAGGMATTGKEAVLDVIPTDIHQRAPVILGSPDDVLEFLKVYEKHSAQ
Method: The following tests were carried out for evaluating the inhibitory activity of the compounds of the present invention against human liver FBPase (Swissprot Data base reference P09467, entry F16P_HUMAN).
Human liver FBPase cDNA (NM_000507) was purchased from Origene Technologies, Inc, subcloned in a vector for expression in E. Coli., and sequenced. Recombinant human liver FBPase (hlFBPase) was purified according to the following protocol that uses heat denaturation similarly to that described by El-Maghrabi et. al. [El-Maghrabi, M. R. et al. “Isolation of a human liver fructose-1,6-bisphosphatase cDNA and expression of the protein in Escherichia coli.” J Biol Chem 268:9466-9472, 1993.]. Briefly, E. coli cells, transiently expressing very high levels of soluble and active human liver FBPase, were suspended in 20 mM Tris-HCl pH 7.5, 1 mM EDTA, 1 mM DTT and were lysed by French press. The soluble extract was heat denatured at 65° C. for 5 min, and insoluble, denatured proteins were removed by centrifugation. The extract was then applied to a BioRad Macro-Prep High Q column equilibrated with 20 mM Tris-HCl pH 7.5, 1 mM EDTA, 1 mM DTT and the flow-through (containing FBPase activity) was collected and applied to a BioRad Macro-Prep HS column equilibrated with 20 mM HEPES pH 7.2, 1 mM DTT. A gradient of increasing NaCl concentration was then applied to the HS column and fractions were collected. Fractions containing active FBPase were pooled and further purified by size exclusion chromatography on a Sephacryl S200 column equilibrated in 20 mM Tris-HCl pH 7.5, 150 mM NaCl, 1 mM EDTA, 1 mM DTT. Purity of the enzyme preparation was >90% as assessed by Mass spectrometry.
Recombinant human liver FBPase (hlFBPase) activity was assayed through measuring the inorganic phosphate release that results from the hydrolysis of Fructose-1,6-bisphosphate by the enzyme. As described by Baykov A. A. et al. in [Baykov A. A et al., “Malachite Green procedure for orthophosphate determination and its use in alkaline phosphatase-based enzyme immunoassays”. Anal. Biochem., 171:266-270, 1988], inorganic phosphate can be readily quantified by spectrophotometry at 620 nm after complexation with ammonium molybdate/malachite green reagent. Enzymatic reaction was carried out with modifications of the procedure described by Wright S. W. et al. [Wright S. W. et al., “Anilinoquinazoline inhibitors of Fructose-1,6-bisphosphatase bind to a novel allosteric site: synthesis, in vitro characterization, and X-ray crystallography”. J. Med. Chem. 45:3865-3877, 2002]. Specifically, the reaction was carried out in 96 well plates in a final volume of 100 μl in the presence or in the absence of allosteric inhibitors. Reaction was started adding 25 ng of hlFBPase to the reaction mixture containing 50 mM HEPES-KOH buffer pH 7.2, 2 mM MgCl2, 2 mM EDTA, 1 mM DTT, 50 μM fructose-1,6-bisphosphate and 1% DMSO. After 50 minutes incubation at room temperature, the phosphate released was allowed to form a colored complex for 10 min by adding 150 μl of ammonium molybdate/malachite green reagent containing 0.03% malachite green, 0.2% ammonium molybdate, 0.05% Triton X-100 and 0.7 M H2SO4 in water that was stirred for 30 min at room temperature and filtered through 0.2 μm filter. Under these conditions, the assay was linear with time and able to detect FBPase inhibition after spectrophotometric read-out at 620 nm.

IC50 | SMILES
341 nM | CCc1sc(NC(=O)NS(=O)(=O)c2cc(C)c(CCOC)s2)nc1C [Example 60, N-[(5-Ethyl-4-methyl-1,3-thiazol-2-yl)carbamoyl]-5-(2-methoxyethyl)-4-methylthiophene-2-sulfonamide]
466 nM | CCc1nc(NC(=O)NS(=O)(=O)c2csc(C)c2)sc1OC [Example 61, N-[(4-Ethyl-5-methoxy-1,3-thiazol-2-yl)carbamoyl]-5-methylthiophene-3-sulfonamide]
214 nM | CCc1nc(NC(=O)NS(=O)(=O)c2csc(C)c2)sc1CC [Example 62, N-[(4,5-Diethyl-1,3-thiazol-2-yl)carbamoyl]-5-methylthiophene-3-sulfonamide]
393 nM | CCc1nc(NC(=O)NS(=O)(=O)c2cc(C)c(CCOC)s2)sc1CC [Example 63, N-[(4,5-Diethyl-1,3-thiazol-2-yl)carbamoyl]-5-(2-methoxyethyl)-4-methylthiophene-2-sulfonamide]
188 nM | CC(=O)OCCc1sc(S(=O)(=O)NC(=O)Nc2nc(C)c(Br)s2)cc1C [Example 64, 2-[5-({[(5-Bromo-4-methyl-1,3-thiazol-2-yl)carbamoyl]amino}sulfonyl)-3-methyl-2-thienyl]ethyl acetate]
300 nM | Cc1cc(S(=O)(=O)NC(=O)Nc2nc(-c3ccccc3)c(C)s2)cs1 [Example 65, 5-Methyl-N-[(5-methyl-4-phenyl-1,3-thiazol-2-yl)carbamoyl]thiophene-3-sulfonamide]
160 nM | COCCc1sc(S(=O)(=O)NC(=O)Nc2nc(-c3ccccc3)c(C)s2)cc1C [Example 66, 5-(2-Methoxyethyl)-4-methyl-N-[(5-methyl-4-phenyl-1,3-thiazol-2-)carbamoyl]thiophene-2-sulfonamide]
215 nM | CCc1nc(NC(=O)NS(=O)(=O)c2cc(C)c(CCOC(C)=O)s2)sc1CC [Example 67, 2-[5-({[(4,5-Diethyl-1,3-thiazol-2-yl)carbamoyl]amino}sulfonyl)-3-methyl-2-thienyl]ethyl acetate]
149 nM | CCc1sc(NC(=O)NS(=O)(=O)c2cc(C)c(CCOC(C)=O)s2)nc1C [Example 68, 2-[5-({[(5-Ethyl-4-methyl-1,3-thiazol-2-yl)carbamoyl]amino}sulfonyl)-3-methyl-2-thienyl]ethyl acetate]
340 nM | CCc1nc(NC(=O)NS(=O)(=O)c2cc(C)c(CCO)s2)sc1CC [Example 69, N-[(4,5-Diethyl-1,3-thiazol-2-yl)carbamoyl]-5-(2-hydroxyethyl)-4-methylthiophene-2-sulfonamide]
417 nM | CCc1sc(NC(=O)NS(=O)(=O)c2cc(C)c(CCO)s2)nc1C [Example 70, N-[(5-Ethyl-4-methyl-1,3-thiazol-2-yl)carbamoyl]-5-(2-hydroxyethyl)-4-methylthiophene-2-sulfonamide]
159 nM | CCc1sc(NC(=O)NS(=O)(=O)c2csc(C)c2)nc1-c1ccccc1 [Example 71, N-[(5-Ethyl-4-phenyl-1,3-thiazol-2-yl)carbamoyl]-5-methylthiophene-3-sulfonamide]
224 nM | CCc1sc(NC(=O)NS(=O)(=O)c2cc(C)c(CCOC)s2)nc1-c1ccccc1 [Example 72, N-[(5-Ethyl-4-phenyl-1,3-thiazol-2-yl)carbamoyl]-5-(2-methoxyethyl)-4-methylthiophene-2-sulfonamide]
128 nM | CC(=O)OCCc1sc(S(=O)(=O)NC(=O)Nc2nc(-c3ccccc3)c(C)s2)cc1C [Example 73, 2-[3-Methyl-5-({[(5-methyl-4-phenyl-1,3-thiazol-2-yl)carbamoyl]amino}sulfonyl)-2-thienyl]ethyl acetate]
454 nM | COc1sc(NC(=O)NS(=O)(=O)c2cc(C)c(CCOC(C)=O)s2)nc1C [Example 74, 2-[5-({[(5-Methoxy-4-methyl-1,3-thiazol-2-yl)carbamoyl]amino}sulfonyl)-3-methyl-2-thienyl]ethyl acetate]
